This is an account of results in US20140274688A1, “MOLECULES HAVING CERTAIN PESTICIDAL UTILITIES, AND INTERMEDIATES, COMPOSITIONS, AND PROCESSES RELATED THERETO” (DOW AGROSCIENCES LLC, priority 2013, published 2014).

In assay [1] the test system is Beet Armyworm (Spodoptera exigua) ("BAW"). In words: Bioassay on Beet Armyworm (BAW), 128-well diet tray assay, percent mortality. In kind it is in vivo. The settings on record: Spodoptera exigua, read-out: BAW. An outline of the steps: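 Larvae in covered diet trays held at 25 °C, 14:10 light-dark, for five to seven days. Percent mortality scored per well and averaged over eight wells per treatment.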

The subject of assay [2] is Cabbage Looper (Trichoplusia ni) ("CL"). In words: Bioassay on Cabbage Looper (CL), 128-well diet tray assay, percent mortality. Format: in vivo. The settings on record: Trichoplusia ni, read-out: CL. In outline:
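Larvae held in covered diet trays at 25 °C, 14:10 light-dark, for five to seven days. Percent mortality scored per well and averaged over eight wells.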

For `Cc1ccccc1N1C(=O)CS/C1=N\C(=O)NCCCc1cccc(-c2ncn(-c3ccc(OC(F)(F)F)cc3)n2)c1` [P118, (Z)-1-(4-oxo-3-(o-tolyl)thiazolidin-2-ylidene)-3-(3-(3-(1-(4-(trifluoromethoxy)phenyl)-1H-1,2,4-triazol-3-yl)phenyl)propyl)urea], the pest or weed control at 50 µg/cm2 in assay [1] and in assay [2] was 50 to 100% each time.
Regarding `CCc1ccccc1N1C(=O)CS/C1=N\C(=O)NCCCc1cccc(-c2ncn(-c3ccc(OC(F)(F)F)cc3)n2)c1` [P119, (Z)-1-(3-(2-ethylphenyl)-4-oxothiazolidin-2-ylidene)-3-(3-(3-(1-(4-(trifluoromethoxy)phenyl)-1H-1,2,4-triazol-3-yl)phenyl)propyl)urea], the pest or weed control at 50 µg/cm2 in assay [1] and in assay [2] was 50 to 100% in each case.
On to `CC(C)c1ccccc1N1C(=O)CS/C1=N\C(=O)NCCCc1cccc(-c2ncn(-c3ccc(OC(F)(F)F)cc3)n2)c1` [P120, (Z)-1-(3-(2-isopropylphenyl)-4-oxothiazolidin-2-ylidene)-3-(3-(3-(1-(4-(trifluoromethoxy)phenyl)-1H-1,2,4-triazol-3-yl)phenyl)propyl)urea], for which the pest or weed control at 50 µg/cm2 in assay [1] and in assay [2] was 50 to 100% in each case.
For `Cc1ccc(C(C)C)c(N2C(=O)CS/C2=N\C(=O)NCCCc2cccc(-c3ncn(-c4ccc(OC(F)(F)F)cc4)n3)c2)c1` [P124, (Z)-1-(3-(2-isopropyl-5-methylphenyl)-4-oxothiazolidin-2-ylidene)-3-(3-(3-(1-(4-(trifluoromethoxy)phenyl)-1H-1,2,4-triazol-3-yl)phenyl)propyl)urea], the pest or weed control at 50 µg/cm2 in assay [1] and in assay [2] was 50 to 100% each time.
Consider `CCCc1ccc(C)cc1N1C(=O)CS/C1=N\C(=O)NCCCc1cccc(-c2ncn(-c3ccc(OC(F)(F)F)cc3)n2)c1` [P125, (Z)-1-(3-(5-methyl-2-propylphenyl)-4-oxothiazolidin-2-ylidene)-3-(3-(3-(1-(4-(trifluoromethoxy)phenyl)-1H-1,2,4-triazol-3-yl)phenyl)propyl)urea], for which the pest or weed control at 50 µg/cm2 in assay [1] and in assay [2] was 50 to 100% throughout.
As for `CCc1cccc(C)c1N1C(=O)CS/C1=N\C(=O)NCCCc1cccc(-c2ncn(-c3ccc(OC(F)(F)F)cc3)n2)c1` [P127, (Z)-1-(3-(2-ethyl-6-methylphenyl)-4-oxothiazolidin-2-ylidene)-3-(3-(3-(1-(4-(trifluoromethoxy)phenyl)-1H-1,2,4-triazol-3-yl)phenyl)propyl)urea], the pest or weed control at 50 µg/cm2 in assay [1] and in assay [2] was 50 to 100% throughout.
For `Cc1ccc(N2C(=O)CS/C2=N\C(=O)NCCCc2cccc(-c3ncn(-c4ccc(OC(F)(F)F)cc4)n3)c2)c(C(C)C)c1` [P128, (Z)-1-(3-(2-isopropyl-4-methylphenyl)-4-oxothiazolidin-2-ylidene)-3-(3-(3-(1-(4-(trifluoromethoxy)phenyl)-1H-1,2,4-triazol-3-yl)phenyl)propyl)urea], the pest or weed control at 50 µg/cm2 in assay [1] and in assay [2] was 50 to 100% each time.
Take `CC(C)c1cc(F)ccc1N1C(=O)CS/C1=N\C(=O)NCCCc1cccc(-c2ncn(-c3ccc(OC(F)(F)F)cc3)n2)c1` [P129, (Z)-1-(3-(4-fluoro-2-isopropylphenyl)-4-oxothiazolidin-2-ylidene)-3-(3-(3-(1-(4-(trifluoromethoxy)phenyl)-1H-1,2,4-triazol-3-yl)phenyl)propyl)urea]: the pest or weed control at 50 µg/cm2 in assay [1] and in assay [2] was 50 to 100% in each case.
As for `COc1ccc(N2C(=O)CS/C2=N\C(=O)NCCCc2cccc(-c3ncn(-c4ccc(OC(F)(F)F)cc4)n3)c2)c(C)c1` [P131, (Z)-1-(3-(4-methoxy-2-methylphenyl)-4-oxothiazolidin-2-ylidene)-3-(3-(3-(1-(4-(trifluoromethoxy)phenyl)-1H-1,2,4-triazol-3-yl)phenyl)propyl)urea], the pest or weed control at 50 µg/cm2 in assay [1] and in assay [2] was 50 to 100% throughout.
For the compound `CCc1ccccc1N1C(=O)CS/C1=N\C(=O)NCCCCc1ccc(-c2ncn(-c3ccc(OC(F)(F)F)cc3)n2)cc1` [P145, (Z)-1-(3-(2-ethylphenyl)-4-oxothiazolidin-2-ylidene)-3-(4-(4-(1-(4-(trifluoromethoxy)phenyl)-1H-1,2,4-triazol-3-yl)phenyl)butyl)urea], the pest or weed control at 50 µg/cm2 in assay [1] and in assay [2] was 50 to 100% throughout.
Turning to `CC(C)c1ccccc1N1C(=O)CS/C1=N\C(=O)NCCCCc1ccc(-c2ncn(-c3ccc(OC(F)(F)F)cc3)n2)cc1` [P146, (Z)-1-(3-(2-isopropylphenyl)-4-oxothiazolidin-2-ylidene)-3-(4-(4-(1-(4-(trifluoromethoxy)phenyl)-1H-1,2,4-triazol-3-yl)phenyl)butyl)urea], the pest or weed control at 50 µg/cm2 in assay [1] and in assay [2] was 50 to 100% each time.
For `Cc1ccc(C(C)C)c(N2C(=O)CS/C2=N\C(=O)NCCCCc2ccc(-c3ncn(-c4ccc(OC(F)(F)F)cc4)n3)cc2)c1` [P150, (Z)-1-(3-(2-isopropyl-5-methylphenyl)-4-oxothiazolidin-2-ylidene)-3-(4-(4-(1-(4-(trifluoromethoxy)phenyl)-1H-1,2,4-triazol-3-yl)phenyl)butyl)urea], the pest or weed control at 50 µg/cm2 in assay [1] and in assay [2] was 50 to 100% each time.
On to `CCCc1ccc(C)cc1N1C(=O)CS/C1=N\C(=O)NCCCCc1ccc(-c2ncn(-c3ccc(OC(F)(F)F)cc3)n2)cc1` [P151, (Z)-1-(3-(5-methyl-2-propylphenyl)-4-oxothiazolidin-2-ylidene)-3-(4-(4-(1-(4-(trifluoromethoxy)phenyl)-1H-1,2,4-triazol-3-yl)phenyl)butyl)urea], for which the pest or weed control at 50 µg/cm2 in assay [1] and in assay [2] was 50 to 100% in each case.
On to `CC(C)c1cc(F)ccc1N1C(=O)CS/C1=N\C(=O)NCCCCc1ccc(-c2ncn(-c3ccc(OC(F)(F)F)cc3)n2)cc1` [P155, (Z)-1-(3-(4-fluoro-2-isopropylphenyl)-4-oxothiazolidin-2-ylidene)-3-(4-(4-(1-(4-(trifluoromethoxy)phenyl)-1H-1,2,4-triazol-3-yl)phenyl)butyl)urea], for which the pest or weed control at 50 µg/cm2 in assay [1] and in assay [2] was 50 to 100% throughout.
As to `COc1ccc(C(C)C)c(N2C(=O)CS/C2=N\C(=O)NCCCCc2ccc(-c3ncn(-c4ccc(OC(F)(F)F)cc4)n3)cc2)c1` [P156, (Z)-1-(3-(2-isopropyl-5-methoxyphenyl)-4-oxothiazolidin-2-ylidene)-3-(4-(4-(1-(4-(trifluoromethoxy)phenyl)-1H-1,2,4-triazol-3-yl)phenyl)butyl)urea], the pest or weed control at 50 µg/cm2 in assay [1] and in assay [2] was 50 to 100% each time.
As to `CCc1ccccc1N1C(=O)CS/C1=N\C(=O)NCCCCc1cccc(-c2ncn(-c3ccc(OC(F)(F)F)cc3)n2)c1` [P171, (Z)-1-(3-(2-ethylphenyl)-4-oxothiazolidin-2-ylidene)-3-(4-(3-(1-(4-(trifluoromethoxy)phenyl)-1H-1,2,4-triazol-3-yl)phenyl)butyl)urea], the pest or weed control at 50 µg/cm2 in assay [1] and in assay [2] was 50 to 100% throughout.
Consider `CC(C)c1ccccc1N1C(=O)CS/C1=N\C(=O)NCCCCc1cccc(-c2ncn(-c3ccc(OC(F)(F)F)cc3)n2)c1` [P172, (Z)-1-(3-(2-isopropylphenyl)-4-oxothiazolidin-2-ylidene)-3-(4-(3-(1-(4-(trifluoromethoxy)phenyl)-1H-1,2,4-triazol-3-yl)phenyl)butyl)urea], for which the pest or weed control at 50 µg/cm2 in assay [1] and in assay [2] was 50 to 100% in each case.
Take `Cc1ccc(C(C)C)c(N2C(=O)CS/C2=N\C(=O)NCCCCc2cccc(-c3ncn(-c4ccc(OC(F)(F)F)cc4)n3)c2)c1` [P176, (Z)-1-(3-(2-isopropyl-5-methylphenyl)-4-oxothiazolidin-2-ylidene)-3-(4-(3-(1-(4-(trifluoromethoxy)phenyl)-1H-1,2,4-triazol-3-yl)phenyl)butyl)urea]: the pest or weed control at 50 µg/cm2 in assay [1] and in assay [2] was 50 to 100% in each case.
For `CC(C)c1cc(F)ccc1N1C(=O)CS/C1=N\C(=O)NCCCCc1cccc(-c2ncn(-c3ccc(OC(F)(F)F)cc3)n2)c1` [P181, (Z)-1-(3-(4-fluoro-2-isopropylphenyl)-4-oxothiazolidin-2-ylidene)-3-(4-(3-(1-(4-(trifluoromethoxy)phenyl)-1H-1,2,4-triazol-3-yl)phenyl)butyl)urea], the pest or weed control at 50 µg/cm2 in assay [1] and in assay [2] was 50 to 100% throughout.
For `COc1ccc(C(C)C)c(N2C(=O)CS/C2=N\C(=O)NCCCCc2cccc(-c3ncn(-c4ccc(OC(F)(F)F)cc4)n3)c2)c1` [P182, (Z)-1-(3-(2-isopropyl-5-methoxyphenyl)-4-oxothiazolidin-2-ylidene)-3-(4-(3-(1-(4-(trifluoromethoxy)phenyl)-1H-1,2,4-triazol-3-yl)phenyl)butyl)urea], the pest or weed control at 50 µg/cm2 in assay [1] and in assay [2] was 50 to 100% each time.
With `CCC(CNC(=O)/N=C1\SCC(=O)N1c1cc(C)ccc1C(C)C)c1ccc(-c2ncn(-c3ccc(OC(F)(F)F)cc3)n2)cc1` (centres unmarked) [P364, (Z)-1-(3-(2-isopropyl-5-methylphenyl)-4-oxothiazolidin-2-ylidene)-3-(2-(4-(1-(4-(trifluoromethoxy)phenyl)-1H-1,2,4-triazol-3-yl)phenyl)butyl)urea], the pest or weed control at 50 µg/cm2 in assay [1] and in assay [2] was 50 to 100% each time.
As to `CCCc1ccc(C)cc1NC(=S)NC(=O)NCCCCc1ccc(-c2ncn(-c3ccc(OC(F)(F)F)cc3)n2)cc1` [PC151, 1-[(5-methyl-2-propyl-phenyl)carbamothioyl]-3-[4-[4-[1-[4-(trifluoromethoxy)phenyl]-1,2,4-triazol-3-yl]phenyl]butyl]urea], the pest or weed control at 50 µg/cm2 in assay [1] and in assay [2] was 50 to 100% in each case.
